Each structure is given as a SMILES string.

human DGKζ, sequence (Q13574 other isoform, or with tags, fused parts or gaps): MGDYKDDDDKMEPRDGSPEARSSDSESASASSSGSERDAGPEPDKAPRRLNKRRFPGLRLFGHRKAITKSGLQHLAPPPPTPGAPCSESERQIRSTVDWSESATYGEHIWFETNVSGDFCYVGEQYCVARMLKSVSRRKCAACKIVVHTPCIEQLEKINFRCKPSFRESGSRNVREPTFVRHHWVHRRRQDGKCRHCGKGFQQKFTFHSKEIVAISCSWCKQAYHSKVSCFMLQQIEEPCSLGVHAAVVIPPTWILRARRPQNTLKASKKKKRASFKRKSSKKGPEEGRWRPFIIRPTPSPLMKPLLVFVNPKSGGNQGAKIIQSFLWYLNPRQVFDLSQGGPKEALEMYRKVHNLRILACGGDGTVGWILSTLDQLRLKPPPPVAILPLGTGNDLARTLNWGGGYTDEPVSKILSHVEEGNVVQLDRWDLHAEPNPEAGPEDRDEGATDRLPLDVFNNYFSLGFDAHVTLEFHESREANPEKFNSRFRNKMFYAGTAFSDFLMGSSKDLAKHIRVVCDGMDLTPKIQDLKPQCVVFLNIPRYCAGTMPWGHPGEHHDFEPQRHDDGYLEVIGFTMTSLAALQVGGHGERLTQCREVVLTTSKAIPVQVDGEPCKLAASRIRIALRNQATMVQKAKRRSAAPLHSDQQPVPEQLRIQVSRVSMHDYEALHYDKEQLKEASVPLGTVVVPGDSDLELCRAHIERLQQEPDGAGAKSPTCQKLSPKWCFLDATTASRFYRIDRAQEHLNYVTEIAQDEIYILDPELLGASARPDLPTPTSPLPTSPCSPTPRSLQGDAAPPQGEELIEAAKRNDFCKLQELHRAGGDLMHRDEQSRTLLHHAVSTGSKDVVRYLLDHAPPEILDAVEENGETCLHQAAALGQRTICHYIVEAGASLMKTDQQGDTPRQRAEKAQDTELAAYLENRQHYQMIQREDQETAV

The experiment concerns the target human DGKζ (Homo sapiens (Human), UniProt Q13574). Briefly: Human DGKζ kinase activity inhibition assay (ADP-Glo). Particulars: in vitro human DGKζ kinase activity inhibition assay; read-out: IC50. The experiment is classed as biochemical. As to the method: Human DGKζ Kinase Activity Inhibition Assay. Human diacylglycerol kinase zeta (DGKζ) inhibitory activity of compounds of the present invention was quantified employing the human DGKζ kinase activity assay as described in the following paragraphs. In essence, the enzyme activity was measured by quantification of the adenosine-di-phosphate (ADP) generated as a co-product of the enzyme reaction via the “ADP-Glo™ Kinase Assay” kit from the company Promega. This detection system works as follows: In a first step the adenosine-tri-phosphate (ATP) not consumed in the kinase reaction is quantitatively converted to cyclic adenosine-mono-phosphate (cAMP) employing an adenylate cyclase (“ADP-Glo-reagent”), then the adenylate cyclase is stopped and the ADP generated in the kinase reaction is converted to ATP, which subsequently generates in a luciferase-based reaction a glow-luminescence signal (“Kinase Detection Reagent”). C-terminally FLAG-tagged, recombinant full-length human DGKζ (in house expressed in baculovirus infected insect cells, purified using anti-Flag pulldown and size exclusion chromatography) was used as enzyme. As an alternative, commercially available enzyme by Carnabio can be used. […] Subsequently, 22.55 volumes of a 510 mM solution of octyl-β-D-glucopyranoside (Sigma-Aldrich, Cat. #O8001-10G) in 50 mM MOPS buffer (pH 7.4) were added, and the mixture was sonicated in an ultrasonic bath for 20 s. […] Viewlux™ from Perkin-Elmer). The amount of emitted light was taken as a measure for the amount of ADP generated and thereby for the activity of the DGKζ.
On the technique in general: In ADP-Glo the light output rises with the ADP produced.
As to `Cc1ccc(C(=O)c2sc(N(c3ccc(F)cc3)C(C)C(N)=O)nc2N)cc1` (racemic) [Example 63, rac-2-(N-[4-amino-5-(4-methylbenzoyl)thiazol-2-yl]-4-fluoro-anilino)propanamide], the IC50 (usually the concentration needed to halve the response being measured) worked out at 33.9 nM.

Take `CC(C(N)=O)N(c1ccc(F)cc1)c1nc(N)c(C(=O)c2ccc(F)cc2)s1` (racemic) [Example 64, rac-2-(N-[4-amino-5-(4-fluorobenzoyl)thiazol-2-yl]-4-fluoro-anilino)propanamide]: the IC50 was 55.8 nM.

Take `CC(C(N)=O)N(c1nc(N)c(C(=O)c2ccccc2)s1)c1ccc(F)cc1F` (racemic) [Example 65, rac-2-(N-(4-amino-5-benzoyl-thiazol-2-yl)-2,4-difluoro-anilino)propanamide]: the concentration for half-maximal inhibition (IC50) amounted to 101 nM.

As to `COc1ccc(N(c2nc(N)c(C(=O)c3ccccc3)s2)C(C)C(N)=O)cc1` (racemic) [Example 66, rac-2-(N-(4-amino-5-benzoyl-thiazol-2-yl)-4-methoxy-anilino)propanamide], the IC50 came to 363 nM.

For `CCC(C(N)=O)N(c1ccccc1)c1nc(N)c(C(=O)c2ccccc2)s1` (racemic) [Example 67, rac-2-[(4-amino-5-benzoyl-1,3-thiazol-2-yl)(phenyl)amino]butanamide], the IC50 worked out at 2270 nM.

Regarding `CCC(C(N)=O)N(c1ccc(F)cc1)c1nc(N)c(C(=O)c2ccccc2)s1` (racemic) [Example 68, rac-2-[(4-amino-5-benzoyl-1,3-thiazol-2-yl)(4-fluorophenyl)amino]butanamide], the concentration for half-maximal inhibition (IC50) is 457 nM.

`CC(Oc1ccc(C(=O)c2sc(N(c3ccc(F)cc3)C(C)C(N)=O)nc2N)cc1)C(N)=O` (racemic) [Example 69, 2-(N-[4-amino-5-[4-(2-amino-1-methyl-2-oxo-ethoxy)benzoyl]thiazol-2-yl]-4-fluoro-anilino)propanamide]: the IC50 turned out to be 64.1 nM.

Regarding `CCC(C(N)=O)N(c1ccc(F)cc1)c1nc(N)c(C(=O)c2ccc(OC)cc2)s1` (racemic) [Example 70, rac-2-{[4-amino-5-(4-methoxybenzoyl)-1,3-thiazol-2-yl](4-fluorophenyl)amino}butanamide], the IC50 was determined as 196 nM.

For the compound `Cc1ccc(N(c2nc(N)c(C(=O)c3ccccc3)s2)C(C)C(N)=O)cc1` (racemic) [Example 73, rac-2-(N-(4-amino-5-benzoyl-thiazol-2-yl)-4-methyl-anilino)propanamide], the IC50 was 148 nM.

As to `CC(C(N)=O)N(c1cccc(F)c1)c1nc(N)c(C(=O)c2ccccc2)s1` (racemic) [Example 74, rac-2-(N-(4-amino-5-benzoyl-thiazol-2-yl)-3-fluoro-anilino)propanamide], the IC50 is 190 nM.

Regarding `CC(C(N)=O)N(c1nc(N)c(C(=O)c2ccccc2)s1)c1ccccc1F` (racemic) [Example 75, rac-2-(N-(4-amino-5-benzoyl-thiazol-2-yl)-2-fluoro-anilino)propanamide], the IC50 was 419 nM.

Take `Cc1cccc(N(c2nc(N)c(C(=O)c3ccccc3)s2)C(C)C(N)=O)c1` (racemic) [Example 76, rac-2-(N-(4-amino-5-benzoyl-thiazol-2-yl)-3-methyl-anilino)propanamide]: the IC50 turned out to be 252 nM.

Regarding `Cc1ccccc1N(c1nc(N)c(C(=O)c2ccccc2)s1)C(C)C(N)=O` (racemic) [Example 77, rac-2-(N-(4-amino-5-benzoyl-thiazol-2-yl)-2-methyl-anilino)propanamide], the IC50 is 533 nM.

On to `CC(C(N)=O)N(c1cnn(C)c1)c1nc(N)c(C(=O)c2ccccc2)s1` (racemic) [Example 78, rac-2-[(4-amino-5-benzoyl-thiazol-2-yl)-(1-methylpyrazol-4-yl)amino]propanamide], for which the IC50 worked out at 7220 nM.

As for `CC(C(N)=O)N(c1cccnc1)c1nc(N)c(C(=O)c2ccccc2)s1` (racemic) [Example 79, rac-2-[(4-amino-5-benzoyl-thiazol-2-yl)-(3-pyridyl)amino]propanamide], the IC50 worked out at 6790 nM.

For the compound `CC(C(N)=O)N(c1ccc(F)cc1)c1nc(N)c(C(=O)c2ccc(Br)cc2)s1` (racemic) [Example 80, rac-2-(N-[4-amino-5-(4-bromobenzoyl)thiazol-2-yl]-4-fluoro-anilino)propanamide], the half-inhibitory concentration (IC50) worked out at 10.8 nM.

For `CCOC(=O)COc1ccc(C(=O)c2sc(N(c3ccc(F)cc3)C(C)C(N)=O)nc2N)cc1` (racemic) [Example 81, rac-ethyl 2-[4-[4-amino-2-(4-fluoro-N-[2-amino-1-methyl-2-oxo-ethyl]anilino)thiazole-5-carbonyl]phenoxy]acetate], the IC50 was 8.71 nM.

As to `CC(C)NC(=O)COc1ccc(C(=O)c2sc(N(c3ccc(F)cc3)C(C)C(N)=O)nc2N)cc1` (racemic) [Example 82, rac-2-(N-[4-amino-5-[4-[2-(isopropylamino)-2-oxo-ethoxy]benzoyl]thiazol-2-yl]-4-fluoro-anilino)propanamide], the IC50 is 89.6 nM.

As for `Cc1cccc(CNC(=O)COc2ccc(C(=O)c3sc(N(c4ccc(F)cc4)C(C)C(N)=O)nc3N)cc2)c1` (racemic) [Example 83, rac-2-(N-[4-amino-5-[4-[2-(m-tolylmethylamino)-2-oxo-ethoxy]benzoyl]thiazol-2-yl]-4-fluoro-anilino)propanamide], the IC50 was found to be 24.3 nM.

As for `Cc1ccccc1CNC(=O)COc1ccc(C(=O)c2sc(N(c3ccc(F)cc3)C(C)C(N)=O)nc2N)cc1` (racemic) [Example 84, rac-2-(N-[4-amino-5-[4-[2-(o-tolylmethylamino)-2-oxo-ethoxy]benzoyl]thiazol-2-yl]-4-fluoro-anilino)propanamide], the 50% inhibitory concentration (IC50) was found to be 24.6 nM.

For the compound `CC(C(N)=O)N(c1ccc(F)cc1)c1nc(N)c(C(=O)c2ccc(OCC(=O)N3CCN(C)CC3)cc2)s1` (racemic) [Example 86, rac-2-(N-[4-amino-5-[4-[2-(4-methylpiperazin-1-yl)-2-oxo-ethoxy]benzoyl]thiazol-2-yl]-4-fluoro-anilino)propanamide], the IC50 is 759 nM.

With `Cc1cccc(NC(=O)COc2ccc(C(=O)c3sc(N(c4ccc(F)cc4)C(C)C(N)=O)nc3N)cc2)c1` (racemic) [Example 87, rac-2-(N-[4-amino-5-[4-[2-(3-methylanilino)-2-oxo-ethoxy]benzoyl]thiazol-2-yl]-4-fluoro-anilino)propanamide], the IC50 was 8.53 nM.

In the case of `CC(C(N)=O)N(c1ccc(F)cc1)c1nc(N)c(C(=O)c2ccc(OCC(=O)N3CCOCC3)cc2)s1` (racemic) [Example 88, rac-2-(N-[4-amino-5-[4-(2-morpholino-2-oxo-ethoxy)benzoyl]thiazol-2-yl]-4-fluoro-anilino)propanamide], the IC50 worked out at 667 nM.

Regarding `CC(C(N)=O)N(c1ccc(F)cc1)c1nc(N)c(C(=O)c2ccc(OCC(=O)NCCN3CCCCC3)cc2)s1` (racemic) [Example 89, rac-2-(N-[4-amino-5-[4-[2-oxo-2-[2-(1-piperidyl)ethylamino]ethoxy]benzoyl]thiazol-2-yl]-4-fluoro-anilino)propanamide], the concentration for half-maximal inhibition (IC50) was 131 nM.

As for `CC(C(N)=O)N(c1ccc(F)cc1)c1nc(N)c(C(=O)c2ccc(OCC(=O)N3CCC(Cc4ccccc4)CC3)cc2)s1` (racemic) [Example 90, rac-2-(N-[4-amino-5-[4-[2-(4-benzyl-1-piperidyl)-2-oxo-ethoxy]benzoyl]thiazol-2-yl]-4-fluoro-anilino)propanamide], the IC50 worked out at 63.3 nM.

Turning to `COCCNC(=O)COc1ccc(C(=O)c2sc(N(c3ccc(F)cc3)C(C)C(N)=O)nc2N)cc1` (racemic) [Example 91, rac-2-(N-(4-amino-5-[4-[2-(2-methoxyethylamino)-2-oxo-ethoxy]benzoyl]thiazol-2-yl]-4-fluoro-anilino)propanamide], the IC50 is 701 nM.

Consider `CC(C(N)=O)N(c1ccc(F)cc1)c1nc(N)c(C(=O)c2ccc(OCC(=O)Nc3ccc(C#N)cc3)cc2)s1` (racemic) [Example 92, rac-2-(N-[4-amino-5-[4-[2-(4-cyanoanilino)-2-oxo-ethoxy]benzoyl]thiazol-2-yl]-4-fluoro-anilino)propanamide], for which the IC50 stood at 16.7 nM.

Consider `C#CCN(C)C(=O)COc1ccc(C(=O)c2sc(N(c3ccc(F)cc3)C(C)C(N)=O)nc2N)cc1` (racemic) [Example 93, rac-2-(N-[4-amino-5-[4-[2-[methyl(prop-2-ynyl)amino]-2-oxo-ethoxy]benzoyl]thiazol-2-yl]-4-fluoro-anilino)propanamide], for which the IC50 was 187 nM.

`COc1ccccc1CNC(=O)COc1ccc(C(=O)c2sc(N(c3ccc(F)cc3)C(C)C(N)=O)nc2N)cc1` (racemic) [Example 94, rac-2-(N-[4-amino-5-[4-[2-[(2-methoxyphenyl)methylamino]-2-oxo-ethoxy]benzoyl]thiazol-2-yl]-4-fluoro-anilino)propanamide]: the IC50 was 25.7 nM.

Consider `COc1cccc(CNC(=O)COc2ccc(C(=O)c3sc(N(c4ccc(F)cc4)C(C)C(N)=O)nc3N)cc2)c1` (racemic) [Example 95, rac-2-(N-(4-amino-5-[4-[2-[(3-methoxyphenyl)methylamino]-2-oxo-ethoxy]benzoyl]thiazol-2-yl]-4-fluoro-anilino)propanamide], for which the IC50 was 39 nM.

Source of the values: patent publication US11964953B2, “Substituted aminothiazoles as DGKzeta inhibitors for immune activation” (Bayer Aktiengesellschaft, priority 2020, dated 2024).
